Like-named read-outs stand apart in the source and are kept apart here.
Key:
Cl. acidiurici = experiment: M.I.C. against anaerobic bacteria, Cl. acidiurici; assay type: cell-based; settings: strain A9560
Pseudomonas aeruginosa [1] = experiment: animal or person; settings: in Mus musculus, im
Pseudomonas aeruginosa [2] = experiment: Minimum Bactericidal Concentration, inoculum 10^4 cells/ml., at least 99% kill; assay type: cell-based
Method: The bactericidal in vitro activity of sodium D(-)-6-(α-(1,2,4-triazine-3,5-dione-6-carboxamido)-4-hydroxyphenylacetamido)penicillanate (BL-P1908) against several strains of Pseudomonas aeruginosa was determined under two sets of conditions. In one test the Minimum Bactericidal Concentrations (M.B.C.) were determined using an inoculum size of 10^4 cells/ml. and the M.B.C. was defined as the lowest concentration of antibiotic in mcg./ml. needed to kill at least 99% of the viable Pseudomonas cells.

Cl. septicum = experiment: M.I.C. against anaerobic bacteria, Cl. septicum; assay type: cell-based; settings: Clostridium septicum; strain A21869
Cl. cylindrosporum = experiment: M.I.C. against anaerobic bacteria, Cl. cylindrosporum; assay type: cell-based; settings: strain A9562
[3] = test system: Pseudomonas aeruginosa A9843A; assay type: in vivo, mice; settings: mouse, in vivo
Cl. perfringens = experiment: microbe, parasite or virus in culture; assay type: cell-based; settings: Clostridium perfringens
Pseudomonas aeruginosa [4] = experiment: Minimum Inhibitory Concentration, agar dilution, overnight incubation at 37° C.; assay type: cell-based; settings: Pseudomonas aeruginosa
From the text: A carbenicillin sample was also run for comparative purposes.

Cl. difficile = experiment: M.I.C. against anaerobic bacteria, Cl. difficile; assay type: cell-based; settings: Clostridioides difficile
Pseudomonas aeruginosa [5] = experiment: In vitro bactericidal synergism, broth dilution checkerboard; assay type: cell-based; settings: for MBC: Pseudomonas aeruginosa, drug alone, read-out: Minimum Bactericidal Concentration
Pseudomonas aeruginosa [6] = experiment: Minimum Bactericidal Concentration, inoculum 10^5 cells/ml., at least 99.9% kill; assay type: cell-based
From the text: The effect of increased inoculum size on the bactericidal activity of BL-P1908 was investigated by a second test in which an inoculum size of 10^5 cells/ml. was used and the M.B.C. was defined as the lowest concentration of antibiotics in mcg./ml. needed to kill at least 99.9% of viable Pseudomonas cells.

[7] = Mouse blood (plasma) antibiotic levels after single intramuscular dose; assay type: in vivo; settings: im, 40 mg/kg, mice, 40 mg./kg. i.m.; for concentration at 0.25 h: 15 min.; for concentration at 0.5 h: 30 min.; for concentration at 1 h: 60 min.; for concentration at 1.5 h: 90 min.
Method: Plasma antibiotic levels from mice administered a single intramuscular dose of 40 mg./kg. of BL-[…] or carbenicillin are shown in the following table.

Bacteroides fragilis = experiment: M.I.C. against anaerobic bacteria, Bacteroides fragilis; assay type: cell-based
Cl. ramosum = experiment: M.I.C. against anaerobic bacteria, Cl. ramosum; assay type: cell-based; settings: Thomasclavelia ramosa
[8] = Ave. of Tests 1 and 2, read-out: Blood Level
[9] = Test 1 (Ave. of 6 mice tested), read-out: Blood Level
[10] = Test 2 (Ave. of 8 mice tested), read-out: Blood Level

## CC1(C)S[C@@H]2[C@H](NC(=O)[C@H](NC(=O)c3n[nH]c(=O)[nH]c3=O)c3ccc(O)cc3)C(=O)N2[C@H]1C(=O)O [BL-P1908, sodium D(-)-6-(α-(1,2,4-triazine-3,5-dione-6-carboxamido)-4-hydroxyphenylacetamido)penicillanate]
Cl. acidiurici
  MIC: 1 µg/mL
Pseudomonas aeruginosa [1]; read-out: PD50 /treatment, P. aeruginosa A9843A, challenge 1 × 10^4, i.m., at 0 and 2 hours
  ED50: 4.8 mg/kg
Pseudomonas aeruginosa [1]; read-out: PD50 /treatment, P. aeruginosa A9843A, challenge 2 × 10^4, i.m., at 0 and 2 hours
  ED50: 2.5 mg/kg
Pseudomonas aeruginosa [1]; read-out: PD50 /treatment, P. aeruginosa A9843A, challenge 3 × 10^4, i.m., at 0 and 2 hours
  ED50: 11 mg/kg
Pseudomonas aeruginosa [1]; read-out: PD50 /treatment, P. aeruginosa A20599, challenge 3 × 10^4, i.m., at 0 and 2 hours
  ED50: 5.4 mg/kg
Pseudomonas aeruginosa [1]; read-out: PD50 /treatment, P. aeruginosa A20599, challenge 6 × 10^4, i.m., at 0 and 2 hours
  ED50: 9.6 mg/kg
Pseudomonas aeruginosa [2]; strain 9843A
  MBC: 63 µg/mL
Pseudomonas aeruginosa [2]; strain 9910
  MBC: 1 µg/mL
Pseudomonas aeruginosa [2]; strain 9926
  MBC: 2 µg/mL
Pseudomonas aeruginosa [2]; strain 20126
  MBC: 2 µg/mL
Pseudomonas aeruginosa [2]; strain 20128
  MBC: 2 µg/mL
Pseudomonas aeruginosa [2]; strain 20227
  MBC: 2 µg/mL
Pseudomonas aeruginosa [2]; strain 20228
  MBC: 8 µg/mL
Pseudomonas aeruginosa [2]; strain 20546
  MBC: 1 µg/mL
Pseudomonas aeruginosa [2]; strain 20557
  MBC: 16 µg/mL
Pseudomonas aeruginosa [2]; strain 20574
  MBC: 2 µg/mL
Pseudomonas aeruginosa [2]; strain 20616
  MBC: 2 µg/mL
Pseudomonas aeruginosa [2]; strain 20641
  MBC: 4 µg/mL
Pseudomonas aeruginosa [2]; strain 20717
  MBC: 63 µg/mL
Pseudomonas aeruginosa [2]; strain 20726
  MBC: 2 µg/mL
Pseudomonas aeruginosa [2]; strain 21336
  MBC: 2 µg/mL
Cl. septicum
  MIC: 1 µg/mL
Cl. cylindrosporum
  MIC: 16 µg/mL
[3]
  equally effective dosage, drug alone: 5 mg/kg
Cl. perfringens; strain A21873
  MIC: 0.13 µg/mL
Cl. perfringens; strain A21874
  MIC: 0.13 µg/mL
Cl. perfringens; strain A21907
  MIC: 0.13 µg/mL
Pseudomonas aeruginosa [4]; strain A9502
  MIC: 2 µg/mL
Pseudomonas aeruginosa [4]; strain A9827
  MIC: 1 µg/mL
Pseudomonas aeruginosa [4]; strain A9910
  MIC: 1 µg/mL
Pseudomonas aeruginosa [4]; strain A9923
  MIC: 2 µg/mL
Pseudomonas aeruginosa [4]; strain A9924
  MIC: 2 µg/mL
Pseudomonas aeruginosa [4]; strain A9925
  MIC: 1 µg/mL
Pseudomonas aeruginosa [4]; strain A9926
  MIC: 1 µg/mL
Pseudomonas aeruginosa [4]; strain A9930
  MIC: 2 µg/mL
Pseudomonas aeruginosa [4]; strain A9931
  MIC: 1 µg/mL
Pseudomonas aeruginosa [4]; strain A15150
  MIC: 2 µg/mL
Pseudomonas aeruginosa [4]; strain A15151
  MIC: 8 µg/mL
Pseudomonas aeruginosa [4]; strain A15194
  MIC: 4 µg/mL
Pseudomonas aeruginosa [4]; strain A15195
  MIC: 2 µg/mL
Pseudomonas aeruginosa [4]; strain A15196
  MIC: 2 µg/mL
Pseudomonas aeruginosa [4]; strain A20125
  MIC: 2 µg/mL
Pseudomonas aeruginosa [4]; strain A20126
  MIC: 0.5 µg/mL
Pseudomonas aeruginosa [4]; strain A20127
  MIC: 1 µg/mL
Pseudomonas aeruginosa [4]; strain A20128
  MIC: 1 µg/mL
Pseudomonas aeruginosa [4]; strain A20129
  MIC: 1 µg/mL
Pseudomonas aeruginosa [4]; strain A20130
  MIC: 1 µg/mL
Pseudomonas aeruginosa [4]; strain A20227
  MIC: 0.5 µg/mL
Pseudomonas aeruginosa [4]; strain A20228
  MIC: 1 µg/mL
Pseudomonas aeruginosa [4]; strain A20546
  MIC: 2 µg/mL
Pseudomonas aeruginosa [4]; strain A20557
  MIC: 4 µg/mL
Pseudomonas aeruginosa [4]; strain A20574
  MIC: 0.5 µg/mL
Pseudomonas aeruginosa [4]; strain A20602
  MIC: 2 µg/mL
Pseudomonas aeruginosa [4]; strain A20616
  MIC: 1 µg/mL
Pseudomonas aeruginosa [4]; strain A20641
  MIC: 0.5 µg/mL
Pseudomonas aeruginosa [4]; strain A20717
  MIC: 4 µg/mL
Pseudomonas aeruginosa [4]; strain A20726
  MIC: 1 µg/mL
Pseudomonas aeruginosa [4]; strain A21336
  MIC: 2 µg/mL
Cl. difficile; strain A21675
  MIC: 2 µg/mL
Cl. difficile; strain A21972
  MIC: 4 µg/mL
Pseudomonas aeruginosa [5]; strain A20552
  MBC: 500 µg/mL
  strain sensitivity: sensitive
Pseudomonas aeruginosa [5]; strain A21509
  MBC: 500 µg/mL
  strain sensitivity: sensitive
Pseudomonas aeruginosa [5]; strain A21510
  MBC: 100 µg/mL
  strain sensitivity: sensitive
Pseudomonas aeruginosa [5]; strain A9843A
  strain sensitivity: sensitive
Pseudomonas aeruginosa [5]; strain A20480
  strain sensitivity: resistant
Pseudomonas aeruginosa [5]; strain A20620
  strain sensitivity: resistant
Pseudomonas aeruginosa [6]; strain 9843A
  MBC: 500 µg/mL
Pseudomonas aeruginosa [6]; strain 9910
  MBC: 500 µg/mL
Pseudomonas aeruginosa [6]; strain 9926
  MBC: 250 µg/mL
Pseudomonas aeruginosa [6]; strain 20126
  MBC: 32 µg/mL
Pseudomonas aeruginosa [6]; strain 20128
  MBC: 16 µg/mL
Pseudomonas aeruginosa [6]; strain 20227
  MBC: 4 µg/mL
Pseudomonas aeruginosa [6]; strain 20228
  MBC: 250 µg/mL
Pseudomonas aeruginosa [6]; strain 20546
  MBC: 500 µg/mL
Pseudomonas aeruginosa [6]; strain 20557
  MBC: 1000 µg/mL
Pseudomonas aeruginosa [6]; strain 20574
  MBC: > 1000 µg/mL
Pseudomonas aeruginosa [6]; strain 20602
  MBC: 1000 µg/mL
Pseudomonas aeruginosa [6]; strain 20616
  MBC: 1000 µg/mL
Pseudomonas aeruginosa [6]; strain 20641
  MBC: 1000 µg/mL
Pseudomonas aeruginosa [6]; strain 20717
  MBC: > 1000 µg/mL
Pseudomonas aeruginosa [6]; strain 20726
  MBC: 1000 µg/mL
Pseudomonas aeruginosa [6]; strain 21336
  MBC: 1000 µg/mL
[7]; [8]
  concentration at 0.25 h: 26700 ng/mL
  concentration at 0.5 h: 17300 ng/mL
  concentration at 1 h: 5300 ng/mL
  concentration at 1.5 h: < 2900 ng/mL
[7]; [9]
  concentration at 0.25 h: 24900 ng/mL
  concentration at 0.5 h: 19400 ng/mL
  concentration at 1 h: 7500 ng/mL
  concentration at 1.5 h: < 3900 ng/mL
[7]; [10]
  concentration at 0.25 h: 28400 ng/mL
  concentration at 0.5 h: 15100 ng/mL
  concentration at 1 h: 3000 ng/mL
  concentration at 1.5 h: < 1800 ng/mL
Bacteroides fragilis; strain A20920
  MIC: 1 µg/mL
Bacteroides fragilis; strain A20926
  MIC: 2 µg/mL
Bacteroides fragilis; strain A20927-1
  MIC: 1 µg/mL
Bacteroides fragilis; strain A20930
  MIC: 16 µg/mL
Bacteroides fragilis; strain A20933
  MIC: 8 µg/mL
Bacteroides fragilis; strain A20934
  MIC: 4 µg/mL
Bacteroides fragilis; strain A20935
  MIC: 1 µg/mL
Bacteroides fragilis; strain A21870
  MIC: 16 µg/mL
Bacteroides fragilis; strain A21871
  MIC: 16 µg/mL
Bacteroides fragilis; strain A21872
  MIC: 16 µg/mL
Bacteroides fragilis; strain A21875
  MIC: 4 µg/mL
Bacteroides fragilis; strain A22053
  MIC: 8 µg/mL
Bacteroides fragilis; strain A27020
  MIC: 16 µg/mL
Cl. ramosum; strain A21883
  MIC: 0.25 µg/mL
Cl. ramosum; strain A21970
  MIC: 2 µg/mL
